Source: US11559512B2, “Composition for prevention, alleviation, and/or treatment of heat illness” (priority 2017, dated 2023)

Assays:
[1] = test system: IL-6; assay: IL-6 concentration in supernatant of lymphocytes under heat stress load (ELISA); format: cell-based, human
Experimental: 10 mL of human peripheral blood was collected and anti-coagulated with heparin, and 10 mL of PBS(−) was added thereto and stirred. 15 mL of Lymphocyte Separation Medium 1077 (PromoCell GmbH) was layered thereon so as not to mix blood thereinto, followed by blood separation at 1600 rpm for 30 minutes in a centrifuge. The mononuclear cell layer thus separated was collected into a dropper, added to 20 mL of a culture medium, and centrifuged at 1500 rpm for 5 minutes in a centrifuge. The supernatant was removed, and then, 20 mL of a culture medium was added to the cells and stirred. The cells were centrifuged again at 1500 rpm for 5 minutes in a centrifuge. The supernatant was removed, and then, 10 mL of a culture medium was added to the cells and stirred. The whole amount was added to a 10-cm dish and incubated at 37° C. for 1 hour in a 5% CO2 environment. […] The solution with the adjusted lymphocyte density was inoculated at 4 mL/well to 2 wells of each 6-well plate. […] Then, the supernatant was recovered into a 1.5 mL Eppendorf tube and centrifuged at 8000 rpm for 5 minutes in a centrifuge. The supernatant was recovered into a fresh 1.5-mL Eppendorf tube and preserved at −20° C.
Human IL-6 of an ELISA kit was used in IL-6 measurement. 5× Coating Buffer A included in the assay kit was diluted 5-fold with distilled water. Capture Antibody diluted 200-fold with the Coating Buffer was added at 100 μL/well to a 96-well plate, and the plate was left standing overnight at 4° C.
The antibody solution was removed, and each well was washed four times. A very small amount of the reaction solution remaining in the plate was completely removed with Kim Towel. Then, ELISA Assay Diluent (BioLegend, Inc.) diluted 5-fold with distilled water was added at 200 μL/well, and the plate was left standing overnight at 4° C.
The solution was removed, and each well was washed four times. A very small amount of the reaction solution remaining in the plate was completely removed with Kim Towel. IL-6 standard protein was diluted with Assay Diluent to prepare dilution series of the IL-6 standard protein. The dilution series of the IL-6 standard protein and the 40° C. culture supernatant of the lymphocytes were added at 100 μL/well, and the plate was left standing at room temperature for 2 hours. The solution was removed, and each well was washed four times. A very small amount of the reaction solution remaining in the plate was completely removed with Kim Towel. Detection Antibody diluted 200-fold with Assay Diluent was added at 100 μL/well, and the plate was left standing at room temperature for 1 hour. […] The reaction was terminated by the addition of 2 N H2SO4 at 100 μL/well, followed by the absorbance measurement of the reaction solution in a plate reader at 450 nm.

[2] = test system: human vascular endothelial cells (HUVECs); assay: Suppression of cell death by addition of medium chain fatty acid, crystal violet / phase contrast microscopy; format: cell-based; conditions: auraptene 5 μM used alone, printed at 37° C. (FIG. 19A)

CC(C)=CCC/C(C)=C/COc1ccc2ccc(=O)oc2c1 [auraptene, 7-geranyloxycoumarin]
Pyrogenic factor ([1]; Table 2 summary, 40° C., inflammatory cytokines, e.g. IL-6 and CCL-2): Decreased
IL-6 sample A ([1]; peripheral blood lymphocytes sample A, 40° C., auraptene 10 μM, non-addition 10 ± 1.1): 5 ± 0.3 pg/mL
IL-6 sample B ([1]; peripheral blood lymphocytes sample B, 40° C., auraptene 10 μM, non-addition 18 ± 0.8): 10 ± 0.1 pg/mL
production of IL-6 ([1]; peripheral blood lymphocytes under heat stress load, vs DMSO, p<0.05): significantly suppressed
overall number of cells, auraptene alone [2]: increase the overall number of cells
